The results in this text go back to PubChem BioAssay (NCI).

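Dose response: 5 concentrations. Exposure: 48 h. Format: 96-well plates. Endpoint: linear interpolation; highest concentration if not reached. TGI: total growth inhibition.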

What all share (test): NCI tumour cell line growth inhibition, 48 h
The test system of test [1] is OVCAR-8 ovarian.
The test system of test [2] is SN12C renal.
Test [3] concerns SK-MEL-28 melanoma.
Test [4] concerns SW-620 colon.
In test [5] the test system is SF-268 CNS.
For test [6], the system named is HT29 colon.
Test [7] has as its system HOP-92 NSCLC.
Test [8] relates to NCI-H460 lung.
Test [9] relates to NCI-H23 lung.
The subject of test [10] is T-47D breast.
For test [11], the system named is SF-295 CNS.
Test [12] relates to RXF 393 renal.
Test [13] concerns NCI/ADR-RES ovarian.
For test [14], the system named is SNB-75 CNS.
Test [15] concerns KM12 colon.
For test [16], the system named is NCI-H522 lung.
For test [17], the system named is OVCAR-3 ovarian.
For test [18], the system named is 786-0 renal.
Test [19] deals with HL-60(TB) leukemia.

Take `[N-]=[N+]=Nc1c(Cl)c(Cl)nc2ccccc12`: the TGI in [1], in test [2], in test [3], in [4], in test [5] and in [6] was more than 100 µM throughout. Moreover, the TGI in test [7], in [8], in test [9], in [10], in test [11] and in test [12] was more than 100 µM each time. For the same molecule, the TGI in [13], in [14], in test [15], in [16], in test [17] and in test [18] was more than 100 µM in each case.
Consider `CNC(=O)NCCN1CC2CCC(CC2)C1`, for which the TGI in test [1], in [2], in test [3], in test [4], in [5] and in test [6] was more than 10 µM in each case. Also, the TGI in test [19], in [8], in test [9], in test [10], in test [11] and in [12] was more than 10 µM each time. The TGI in [13], in test [14], in test [15], in [16], in test [17] and in test [18] was more than 10 µM throughout.
Consider `O[C@H]1[C@H](O)[C@@H](O)[C@@]2(O)CC[C@@H]1N2`, for which the TGI in test [1], in test [2], in test [3], in [4], in test [5] and in [6] was more than 100 µM throughout. Besides, the TGI in [7], in [8], in test [9], in test [10], in test [11] and in [12] was more than 100 µM throughout. The TGI in test [13], in test [14], in test [15], in test [16], in test [17] and in test [18] was more than 100 µM throughout.
For `COc1ccc(-c2cc(-c3ccc(O)cc3O)c(C#N)c(=O)[nH]2)cc1`, the TGI turned out to be 85.2 µM in test [1]; 40.9 µM in test [2]; 33.5 µM in test [3]; 50.3 µM in [4]; 73.5 µM in [5]; 34.6 µM in test [6]. Moreover, the TGI is 31 µM in test [7]; 65.4 µM in test [19]; 59.7 µM in [8]; 71.1 µM in test [9]; more than 100 µM in test [10]; 34 µM in [11]. Moreover, the TGI is 35.4 µM in test [12]; 46.2 µM in [13]; more than 100 µM in test [15]; 48.6 µM in [17]; 40.9 µM in [18].
`COc1ccc(OC)c(C2CCc3c(cnc4nc(N)nc(N)c34)C2)c1` (centres undefined): the TGI is 21.6 µM in test [1]; 22 µM in [2]; 29.4 µM in [3]; 37.2 µM in [4]; 18.9 µM in test [5]; 16.2 µM in test [6]. Also, the TGI in test [7] was determined as 26.3 µM; in [19], 25.9 µM; in test [8], 21.6 µM; in [10] it was 39.8 µM; in test [11], 23.3 µM; in test [12] it was 32.1 µM. In addition, the TGI in test [13] was more than 100 µM; in test [15] it was 26.4 µM; in test [16] it was 21.7 µM; in test [17], 31.3 µM; in test [18], 18.3 µM.
With `COc1ccc2[nH]cc(C(=O)C(=O)NC34CC5CC(CC(C5)C3)C4)c2c1`, the TGI in [1] is more than 100 µM; in [2], 51.9 µM; in [3] it was more than 100 µM; in test [4], more than 100 µM; in [5], more than 100 µM; in test [6], 5.32 µM. For the same molecule, the TGI was more than 100 µM in [7]; 91.3 µM in [8]; more than 100 µM in [9]; more than 100 µM in test [10]; more than 54.6 µM in test [11]; 16.8 µM in test [12]. In addition, the TGI in test [13] is more than 100 µM; in [14] it was more than 73 µM; in test [15] it was more than 100 µM; in test [16], more than 100 µM; in [17], more than 49.5 µM; in test [18], 47.5 µM.
`N#Cc1ccc(CSC2=C(c3ccc(Cl)cc3)S/C(=C3\SC(SCc4ccc(C#N)cc4)=C(c4ccc(Cl)cc4)S3)S2)cc1`: the TGI in test [1], in test [2], in [3], in test [4], in test [5] and in test [6] was more than 100 µM in each case. Further, the TGI in test [19], in test [8], in test [9], in test [10], in test [11] and in test [12] was more than 100 µM in each case. The TGI in test [13], in [15], in test [16], in [17] and in test [18] was more than 100 µM in each case.
As to `C[Si](C)(N[Si](C)(C)OCCc1ccccc1)OCCc1ccccc1`, the TGI in test [1], in test [2], in test [3], in [4], in test [6] and in test [7] was more than 100 µM throughout. Besides, the TGI in test [19], in test [8], in [9], in [10], in [11] and in test [12] was more than 100 µM throughout. For the same molecule, the TGI in [13], in [14], in test [15], in test [17] and in test [18] was more than 100 µM throughout.
With `Cc1ccc(N=NC(=Nc2ccc(Cl)cc2)c2ccc(N(CCC#N)CCC#N)cc2)cc1`, the TGI in [1], in test [2], in [3], in test [4], in test [5] and in [6] was more than 100 µM throughout. Also, the TGI in [7], in [8], in test [9], in test [10], in [11] and in test [12] was more than 100 µM throughout. The TGI in [13] is more than 100 µM; in test [14], more than 100 µM; in test [15] it was more than 100 µM; in test [16] it was 66 µM; in test [17], more than 100 µM; in [18], more than 100 µM.
On to `CCOC(=O)c1cc2c3c(c(C(C)=O)c(O)c2[nH]1)N(C(C)=O)CC3`, for which the TGI in [1], in test [2], in [3], in [4], in test [5] and in test [6] was more than 100 µM in each case. The TGI in test [19], in test [8], in [9], in test [10], in [11] and in test [12] was more than 100 µM each time. For the same molecule, the TGI in [13], in test [14], in test [15], in test [17] and in [18] was more than 100 µM throughout.
Regarding `O=C(OCc1ccc([N+](=O)[O-])cc1)N1c2ccccc2[C@@]23O[C@]24CCC[C@H]3C#C/C=C\C#C[C@H]14`, the TGI in test [1], in test [2], in [3], in test [4], in test [5] and in [6] was more than 100 µM throughout. Further, the TGI in test [7], in test [19], in test [8], in test [9], in test [10] and in test [11] was more than 100 µM each time. The TGI in test [12], in test [13], in test [15], in [16], in test [17] and in test [18] was more than 100 µM each time.
`COC(=O)C1=C(OC(=O)c2ccccc2)C(C(=O)OC)[C@@]2(O)[C@@H](C(=O)OC)[C@H](C)C[C@@H]1[C@@H]2C(=O)OC` (some centres undefined): the TGI in test [1], in test [2], in test [3], in [4], in test [5] and in test [6] was more than 100 µM throughout. Moreover, the TGI in test [19] is more than 100 µM; in [8], more than 100 µM; in test [9], more than 100 µM; in [10], more than 100 µM; in test [11], more than 100 µM; in test [12] it was 42.9 µM. Moreover, the TGI in test [13] was 44.8 µM; in test [14], more than 100 µM; in test [15], more than 100 µM; in test [16] it was 33 µM; in test [17], more than 100 µM; in test [18], more than 100 µM.
Consider `O=C(CCCN1CCC2(CC1)CC(=O)N(N1CCOCC1)C2=O)c1ccc(F)cc1`, for which the TGI in [1], in [2], in test [3], in test [4], in [5] and in test [6] was more than 100 µM throughout. Moreover, the TGI in test [19], in [8], in test [9], in test [10], in [11] and in [12] was more than 100 µM in each case. The TGI in test [13], in test [14], in test [15], in test [16], in test [17] and in [18] was more than 100 µM each time.
For the molecule `O=C(O)c1nc2ccc(C(F)(F)F)cc2nc1NCc1ccc(Cl)c(Cl)c1`, the TGI in [1] was 32.8 µM; in [2] it was 28.8 µM; in test [3], 33.7 µM; in test [4] it was 47.2 µM; in test [6], 28.5 µM; in test [7], 32.2 µM. Also, the TGI in [8] stood at 30.8 µM; in test [9], 32.4 µM; in test [10], 35.2 µM; in test [11], 37.2 µM; in test [13], 42.7 µM; in test [14] it was 39.1 µM. The TGI in test [15] stood at 33.8 µM; in [17], 24.6 µM; in [18], 29.3 µM.
As to `CC1(C)C2CC(O)C1CCC2=O` (centres undefined), the TGI in test [1], in test [2], in test [3], in [5], in test [6] and in test [19] was more than 100 µM each time. Further, the TGI in test [8], in test [9], in test [10], in [11], in [12] and in test [13] was more than 100 µM in each case. Also, the TGI in [14], in test [15], in test [16], in [17] and in test [18] was more than 100 µM throughout.
For the molecule `O=C(CC(C(=O)c1cccs1)c1ccsc1)c1ccccc1` (centres undefined), the TGI in test [1], in [2], in test [3], in test [4], in test [5] and in test [6] was more than 100 µM each time. Moreover, the TGI in test [7] is more than 100 µM; in test [8], more than 100 µM; in test [9], 85.4 µM; in test [10], more than 100 µM; in [11], more than 100 µM; in [12], more than 100 µM. In addition, the TGI was 80.4 µM in test [13]; more than 100 µM in test [14]; more than 100 µM in test [15]; more than 100 µM in test [16]; more than 100 µM in [17]; more than 100 µM in [18].
